Assay results: paper PMC4248674 (Arthritis & rheumatology (Hoboken, N.J.), 2014)
Square brackets hold non-standard residues; d marks the D form. Peptide text beside a SMILES is read from it. Cit = NC(=O)NCCC[C@H](N)C(=O)O

What follows are compounds tested against HLA-DR0401 protein (Homo sapiens, UniProt P01903+P01911, A100K/A169T/F76Y/I96L/K127E/L162R/M171V/N62H/P40V/Q125Y/R42H/S133A/S149N/S66Y/V115G/V209L/W38E) (assay: Peptide competition binding assay against biotinylated HA306–318 on HLA-DR0401).

IC50 [nM]	Compound
1300	CC(C)C[C@H](NC(=O)[C@H](CCCNC(N)=O)NC(=O)[C@@H](NC(=O)[C@H](C)NC(=O)[C@H](CO)NC(=O)[C@H](CO)NC(=O)[C@H](CCCNC(N)=O)NC(=O)[C@@H](NC(=O)[C@H](C)NC(=O)[C@H](Cc1ccc(O)cc1)NC(=O)[C@@H](NC(=O)CN)C(C)C)[C@@H](C)O)C(C)C)C(=O)N[C@@H](CCCNC(N)=O)C(=O)N[C@@H](CO)C(=O)N[C@@H](CO)C(=O)N[C@H](C(=O)N1CCC[C@H]1C(=O)NCC(=O)N[C@H](C(=O)N[C@@H](CCCNC(=N)N)C(=O)O)C(C)C)C(C)C [Cit-Vim 1] (H-GVYAT[Cit]SSAV[Cit]L[Cit]SSVPGVR-OH)
14000	CC(C)C[C@H](NC(=O)[C@H](CO)NC(=O)[C@H](CC(=O)O)NC(=O)[C@H](CC(C)C)NC(=O)[C@H](CC(N)=O)NC(=O)[C@@H](NC(=O)[C@H](CCC(=O)O)NC(=O)[C@H](CCCNC(N)=O)NC(=O)[C@H](CC(C)C)NC(=O)[C@H](CC(N)=O)NC(=O)[C@H](CC(C)C)NC(=O)[C@H](CO)NC(=O)[C@@H](N)CO)[C@@H](C)O)C(=O)O [Cit-Vim 2]

The remaining lines, values behind:

Compound	IC50 [nM]
C[C@H](NC(=O)[C@H](C)NC(=O)[C@H](CCCNC(N)=O)NC(=O)[C@H](C)NC(=O)[C@@H]1CCCN1C(=O)[C@H](CCCNC(N)=O)NC(=O)[C@H](C)NC(=O)[C@H](CCCNC(=N)N)NC(=O)[C@H](Cc1ccc(O)cc1)NC(=O)CN)C(=O)N[C@@H](C)C(=O)N[C@H](C(=O)O)[C@@H](C)O [Cit-Fib 1] (H-GYRA[Cit]PA[Cit]AAAT-OH)	8200
CC[C@H](C)[C@H](NC(=O)[C@H](CCCNC(N)=O)NC(=O)[C@@H](N)CCCCN)C(=O)N[C@@H](C)C(=O)N[C@@H](CCCCN)C(=O)N[C@@H](C)C(=O)N[C@H](C(=O)N[C@@H](CC(N)=O)C(=O)N[C@@H](CCC(=O)O)C(=O)N[C@@H](CCCCN)C(=O)N[C@@H](CO)C(=O)N[C@@H](CS)C(=O)N[C@@H](CC(N)=O)C(=O)N[C@@H](CS)C(=O)N[C@@H](CC(C)C)C(=O)O)C(C)C [Cit-α-enolase 4] (H-K[Cit]IAKAVNEKSCNCL-OH)	1900
CC[C@H](C)[C@H](NC(=O)[C@H](CCCNC(=N)N)NC(=O)[C@@H](N)CCCCN)C(=O)N[C@@H](C)C(=O)N[C@@H](CCCCN)C(=O)N[C@@H](C)C(=O)N[C@H](C(=O)N[C@@H](CC(N)=O)C(=O)N[C@@H](CCC(=O)O)C(=O)N[C@@H](CCCCN)C(=O)N[C@@H](CO)C(=O)N[C@@H](CS)C(=O)N[C@@H](CC(N)=O)C(=O)N[C@@H](CS)C(=O)N[C@@H](CC(C)C)C(=O)O)C(C)C [α-enolase 4] (H-KRIAKAVNEKSCNCL-OH)	1700
